# pIC50: −log10 of the molar value.
# Legend:
# Assay type in all cases: cell-based
# PC9RK = assay: Cell proliferation assay (CellTiter-Glo), PC9RK; conditions: value marked (PC9RK), read-out: 3T3 del_T790M IC50, (PC9RK)
# Method: Cell proliferation was measured using the CellTiter-Glo® Luminescent Cell Viability Assay. The assay involves the addition of a single reagent (CellTiter-Glo® Reagent) directly to cells cultured in serum-supplemented medium. The assay uses this one-step addition to induce cell lysis and generate a luminescent signal proportional to the amount of ATP present which is directly proportional to the number of metabolically active cells present in culture. The following cell lines were evaluated in this assay: NIH3T3/EGFR_L858R, NIH3T3/EGFR_E746-A750_deletion, NIH3T3/EGFR L858R+T790M, NIH3T3/EGFR_E746-A750_deletion+T790M, PC-9, PC9-DRH, NCI-H1975, and NCI-H3255. NIH/3T3 parental cells, NCI-H1975, and NCI-H3255 were purchased from the American Type Culture Collection (Manassas, Va.), and PC-9 cells were obtained from Japan. All cells were cultured according to recommendations. NIH/3T3 cells were grown in DMEM (Invitrogen, Carlsbad, Calif.) supplemented with 10% newborn calf serum (Invitrogen), and NIH3T3/EGFR mutant cells were grown in complete media with 5 μg/mL puromycin (Invitrogen). PC-9, NCI-H1975, and NCI-H3255 were grown in RPMI (Invitrogen, Carlsbad, Calif.) supplemented with 10% FBS (Sigma, St Louis, Mo.), and PC9-DRH cells were grown in complete media with 2 uM PF-00299804. Plasmids (pLPCX) with various EGFR constructs were made by GenScript (Piscataway, N.J.), and stable pools of NIH/3T3 cells expressing these constructs were made at Pfizer La Jolla. PC9-DRH cells were generated at Pfizer La Jolla by exposing cells to increasing concentrations of PF-00299804. Cells were plated in complete culture media (3000-5000 cells/well, 50 μl/well) on the bottom of white clear-bottom tissue culture treated microtiter plates (#3610, Corning Inc, Corning, N.Y.) and allowed to adhere overnight at 37° C., 5% CO2. The following day, compound dilution plates were prepared in 96 well clear V-bottom 0.5 mL polypropylene block plates (#3956, Corning, Inc). All cell lines were not evaluated for each compound. Each compound evaluated was prepared as a DMSO stock solution (10 mM). Compounds were tested in duplicate on each plate, with an 11-point serial dilution curve (1:3 dilution). Compound treatment (50 μl) was added from the compound dilution plate to the cell plate. The highest compound concentration was 1 or 10 μM (final), with a 0.3% final DMSO (#D-5879, Sigma, St Louis, Mo.) concentration. Plates were then incubated at 37° C., 5% CO2. […] Luminescence was recorded using the PerkinElmer EnVision Excite Multilabel Reader used for endpoint reading for Luminescence detection (Waltham, Mass.). Data were analyzed using a four-parameter fit in Microsoft Excel. […]
# PC-9 = assay: Cell proliferation assay (CellTiter-Glo), PC-9; conditions: Homo sapiens, value marked (PC9), read-out: 3T3 del IC50, (PC9)
# Method: (§1) Cell proliferation was measured using the CellTiter-Glo® Luminescent Cell Viability Assay. The assay involves the addition of a single reagent (CellTiter-Glo® Reagent) directly to cells cultured in serum-supplemented medium. The assay uses this one-step addition to induce cell lysis and generate a luminescent signal proportional to the amount of ATP present which is directly proportional to the number of metabolically active cells present in culture. The following cell lines were evaluated in this assay: NIH3T3/EGFR_L858R, NIH3T3/EGFR_E746-A750_deletion, NIH3T3/EGFR L858R+T790M, NIH3T3/EGFR_E746-A750_deletion+T790M, PC-9, PC9-DRH, NCI-H1975, and NCI-H3255. NIH/3T3 parental cells, NCI-H1975, and NCI-H3255 were purchased from the American Type Culture Collection (Manassas, Va.), and PC-9 cells were obtained from Japan. All cells were cultured according to recommendations. NIH/3T3 cells were grown in DMEM (Invitrogen, Carlsbad, Calif.) supplemented with 10% newborn calf serum (Invitrogen), and NIH3T3/EGFR mutant cells were grown in complete media with 5 μg/mL puromycin (Invitrogen). PC-9, NCI-H1975, and NCI-H3255 were grown in RPMI (Invitrogen, Carlsbad, Calif.) supplemented with 10% FBS (Sigma, St Louis, Mo.), and PC9-DRH cells were grown in complete media with 2 uM PF-00299804. Plasmids (pLPCX) with various EGFR constructs were made by GenScript (Piscataway, N.J.), and stable pools of NIH/3T3 cells expressing these constructs were made at Pfizer La Jolla. PC9-DRH cells were generated at Pfizer La Jolla by exposing cells to increasing concentrations of PF-00299804. Cells were plated in complete culture media (3000-5000 cells/well, 50 μl/well) on the bottom of white clear-bottom tissue culture treated microtiter plates (#3610, Corning Inc, Corning, N.Y.) and allowed to adhere overnight at 37° C., 5% CO2. The following day, compound dilution plates were prepared in 96 well clear V-bottom 0.5 mL polypropylene block plates (#3956, Corning, Inc). All cell lines were not evaluated for each compound. Each compound evaluated was prepared as a DMSO stock solution (10 mM). Compounds were tested in duplicate on each plate, with an 11-point serial dilution curve (1:3 dilution). Compound treatment (50 μl) was added from the compound dilution plate to the cell plate. The highest compound concentration was 1 or 10 μM (final), with a 0.3% final DMSO (#D-5879, Sigma, St Louis, Mo.) concentration. Plates were then incubated at 37° C., 5% CO2. After three to five days of compound treatment, CellTiter-Glo® Reagent (#G7573, Promega, Madison, Wis.) was prepared in one of two ways. If thawing a frozen aliquot of CellTiter-Glo® Reagent, the aliquot was thawed and equilibrated to room temperature prior to use while keeping it protected from light. Alternatively, new bottles of CellTiter-Glo® Buffer and CellTiter-Glo® Substrate were thawed and equilibrated to room temperature prior to use. CellTiter-Glo® Buffer (100 mL) was transferred into the amber bottle containing CellTiter-Glo® Substrate to reconstitute the lyophilized enzyme/substrate mixture, forming the CellTiter-Glo® Reagent. The reconstituted reagent was mixed by gently inverting the contents to obtain a homogeneous solution, and went into solution easily in less than one minute. Any unused reconstituted CellTiter-Glo® Reagent was immediately aliquoted and frozen at −20° C., protected from light. Cell plates were equilibrated at room temperature for approximately 30 minutes. An equivolume amount of CellTiter-Glo® Reagent (100 μL) was added to each well. Plates were mixed for two minutes on an orbital shaker to induce cell lysis, and then allowed to incubate at room temperature for 10 minutes to stabilize the luminescent signal. Luminescence was recorded using the PerkinElmer EnVision Excite Multilabel Reader used for endpoint reading for Luminescence detection (Waltham, Mass.). Data were analyzed using a four-parameter fit in Microsoft Excel. […]
# NCI-H3255 = assay: Cell proliferation assay (CellTiter-Glo), NCI-H3255; conditions: Homo sapiens, value marked (H3255), read-out: 3T3 L858R IC50, (H3255)
# Method: as §1
# EGFR L858R = EGFR L858R (Homo sapiens, UniProt P00533, L858R); assay: pEGFR Y1068 ELISA assay, NIH3T3/EGFR_L858R cells; conditions: 3T3 cell line, 2 hrs compound treatment; read-out: pEGFRY1068 ELISA3T3 L858R IC50;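 also: sandwich ELISA of phospho-EGFR Tyr1068 in lysates of stably transfected NIH/3T3 pools after 2 h compound exposure at 37 °C, 11-point threefold dilution series run in duplicate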
# Chain of EGFR L858R (P00533 25-1210 L858R): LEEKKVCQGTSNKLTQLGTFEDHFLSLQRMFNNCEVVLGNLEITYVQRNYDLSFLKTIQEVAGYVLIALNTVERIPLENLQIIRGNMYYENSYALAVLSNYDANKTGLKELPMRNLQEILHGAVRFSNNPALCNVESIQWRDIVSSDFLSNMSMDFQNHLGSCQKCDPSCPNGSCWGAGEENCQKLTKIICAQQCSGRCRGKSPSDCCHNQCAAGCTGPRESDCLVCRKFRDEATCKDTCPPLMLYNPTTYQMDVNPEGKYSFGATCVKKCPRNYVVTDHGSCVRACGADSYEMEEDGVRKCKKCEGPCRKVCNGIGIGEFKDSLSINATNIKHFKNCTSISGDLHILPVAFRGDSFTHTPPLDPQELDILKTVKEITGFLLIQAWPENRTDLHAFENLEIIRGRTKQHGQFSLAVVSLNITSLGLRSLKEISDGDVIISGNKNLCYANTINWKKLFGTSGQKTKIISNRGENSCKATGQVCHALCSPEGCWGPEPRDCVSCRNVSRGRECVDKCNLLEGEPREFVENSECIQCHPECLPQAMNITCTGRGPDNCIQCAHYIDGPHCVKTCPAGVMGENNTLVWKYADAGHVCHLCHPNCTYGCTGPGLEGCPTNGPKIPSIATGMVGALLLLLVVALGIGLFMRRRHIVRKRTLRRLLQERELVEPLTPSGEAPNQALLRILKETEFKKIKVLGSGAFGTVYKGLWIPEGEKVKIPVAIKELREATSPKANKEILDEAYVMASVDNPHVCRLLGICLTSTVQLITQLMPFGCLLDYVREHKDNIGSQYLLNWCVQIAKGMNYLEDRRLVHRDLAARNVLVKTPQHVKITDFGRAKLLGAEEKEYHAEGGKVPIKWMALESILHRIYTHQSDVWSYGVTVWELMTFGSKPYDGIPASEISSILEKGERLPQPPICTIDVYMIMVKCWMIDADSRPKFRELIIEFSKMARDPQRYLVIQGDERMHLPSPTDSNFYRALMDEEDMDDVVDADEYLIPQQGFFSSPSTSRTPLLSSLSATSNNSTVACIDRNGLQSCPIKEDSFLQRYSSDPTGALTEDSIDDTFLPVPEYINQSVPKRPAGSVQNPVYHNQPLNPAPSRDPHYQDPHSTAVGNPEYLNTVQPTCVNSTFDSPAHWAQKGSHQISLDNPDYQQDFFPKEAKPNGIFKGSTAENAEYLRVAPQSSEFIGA
# NCI-H1975 = assay: Cell proliferation assay (CellTiter-Glo), NCI-H1975; conditions: Homo sapiens, value marked (H1975), read-out: 3T3 L858R_T790M IC50, (H1975)
# Method: as §1
# [1] = target: T1, EGFR L858R+T790M, endogenous (Homo sapiens, UniProt P00533, L858R/T790M); assay: pEGFR Y1068 ELISA assay, NCI-H1975 cells; conditions: value marked (H1975): NCI-H1975 cells, 2 hrs compound treatment; read-out: pEGFRY1068 ELISA3T3T790M—L858R IC50 (nM), (H1975);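 also: sandwich ELISA of endogenous phospho-EGFR (Tyr1068) in lysates of treated cells, 11-point 1:3 serial dilution tested in duplicate per plate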
# T1 construct: NCI-H1975 (EGFR L858R+T790M, endogenous); host or cells: NCI-H1975
# EGFR Del (PC9) = target: T2, EGFR Del (PC9) (Homo sapiens, UniProt P00533, DEL746-750); assay: EGFR ELISA, PC9 Del cells; conditions: read-out: EGFR_ELISA9E PC9 Del IC50;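 also: cellular EGFR autophosphorylation at Tyr1068 quantified by sandwich ELISA of cell lysates after 2 h compound exposure at 37 °C, 11-point threefold dilution series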
# T2 construct: endogenous in cells; host or cells: PC-9
# T2 sequence (P00533 with tags, fused parts or gaps DEL746-750): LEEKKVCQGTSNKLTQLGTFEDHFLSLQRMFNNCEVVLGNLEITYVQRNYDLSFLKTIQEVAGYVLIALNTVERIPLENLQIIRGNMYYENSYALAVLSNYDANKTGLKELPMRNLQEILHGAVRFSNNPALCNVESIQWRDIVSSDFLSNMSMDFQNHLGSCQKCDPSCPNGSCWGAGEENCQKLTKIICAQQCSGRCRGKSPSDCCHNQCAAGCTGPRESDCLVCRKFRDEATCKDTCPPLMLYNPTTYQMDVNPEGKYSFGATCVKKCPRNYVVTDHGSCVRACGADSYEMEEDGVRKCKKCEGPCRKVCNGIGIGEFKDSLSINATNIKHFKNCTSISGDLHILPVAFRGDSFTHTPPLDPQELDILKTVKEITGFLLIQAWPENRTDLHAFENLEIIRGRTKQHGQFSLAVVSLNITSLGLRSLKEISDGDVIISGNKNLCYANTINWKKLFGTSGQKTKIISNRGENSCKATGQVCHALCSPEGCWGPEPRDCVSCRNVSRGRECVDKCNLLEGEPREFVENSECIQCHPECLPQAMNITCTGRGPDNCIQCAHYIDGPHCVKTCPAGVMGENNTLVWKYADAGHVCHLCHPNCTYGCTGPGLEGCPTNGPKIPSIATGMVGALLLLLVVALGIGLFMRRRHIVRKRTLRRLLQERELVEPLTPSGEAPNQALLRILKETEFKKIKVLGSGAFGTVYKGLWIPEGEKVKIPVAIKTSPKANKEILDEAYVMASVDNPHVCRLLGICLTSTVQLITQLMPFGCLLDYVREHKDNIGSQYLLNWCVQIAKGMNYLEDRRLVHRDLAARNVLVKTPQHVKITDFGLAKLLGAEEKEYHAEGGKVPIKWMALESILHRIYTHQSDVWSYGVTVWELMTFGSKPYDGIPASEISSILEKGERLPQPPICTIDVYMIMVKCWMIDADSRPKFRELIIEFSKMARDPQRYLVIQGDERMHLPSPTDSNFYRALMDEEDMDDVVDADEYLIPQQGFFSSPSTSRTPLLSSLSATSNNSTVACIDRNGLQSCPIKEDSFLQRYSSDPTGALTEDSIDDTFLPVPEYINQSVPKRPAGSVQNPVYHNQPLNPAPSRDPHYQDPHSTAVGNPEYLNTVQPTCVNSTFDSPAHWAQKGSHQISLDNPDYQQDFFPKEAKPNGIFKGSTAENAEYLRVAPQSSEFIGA
# [2] = target: T3, EGFR wildtype, endogenous (Homo sapiens, UniProt P00533); assay: pEGFR Y1068 ELISA assay, A549 cells; conditions: full serum media, stimulated 10 min with EGF (40 ng/mL), read-out: pEGFRY1068 ELISAA549 IC50;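 also: sandwich ELISA of phospho-EGFR Tyr1068 in cell lysates, cells exposed to compound for 2 h before EGF stimulation, 11-point threefold dilution series run in duplicate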
# T3 construct: A549 (EGFR wildtype, endogenous); host or cells: A549
# T3 sequence (P00533 25-1210): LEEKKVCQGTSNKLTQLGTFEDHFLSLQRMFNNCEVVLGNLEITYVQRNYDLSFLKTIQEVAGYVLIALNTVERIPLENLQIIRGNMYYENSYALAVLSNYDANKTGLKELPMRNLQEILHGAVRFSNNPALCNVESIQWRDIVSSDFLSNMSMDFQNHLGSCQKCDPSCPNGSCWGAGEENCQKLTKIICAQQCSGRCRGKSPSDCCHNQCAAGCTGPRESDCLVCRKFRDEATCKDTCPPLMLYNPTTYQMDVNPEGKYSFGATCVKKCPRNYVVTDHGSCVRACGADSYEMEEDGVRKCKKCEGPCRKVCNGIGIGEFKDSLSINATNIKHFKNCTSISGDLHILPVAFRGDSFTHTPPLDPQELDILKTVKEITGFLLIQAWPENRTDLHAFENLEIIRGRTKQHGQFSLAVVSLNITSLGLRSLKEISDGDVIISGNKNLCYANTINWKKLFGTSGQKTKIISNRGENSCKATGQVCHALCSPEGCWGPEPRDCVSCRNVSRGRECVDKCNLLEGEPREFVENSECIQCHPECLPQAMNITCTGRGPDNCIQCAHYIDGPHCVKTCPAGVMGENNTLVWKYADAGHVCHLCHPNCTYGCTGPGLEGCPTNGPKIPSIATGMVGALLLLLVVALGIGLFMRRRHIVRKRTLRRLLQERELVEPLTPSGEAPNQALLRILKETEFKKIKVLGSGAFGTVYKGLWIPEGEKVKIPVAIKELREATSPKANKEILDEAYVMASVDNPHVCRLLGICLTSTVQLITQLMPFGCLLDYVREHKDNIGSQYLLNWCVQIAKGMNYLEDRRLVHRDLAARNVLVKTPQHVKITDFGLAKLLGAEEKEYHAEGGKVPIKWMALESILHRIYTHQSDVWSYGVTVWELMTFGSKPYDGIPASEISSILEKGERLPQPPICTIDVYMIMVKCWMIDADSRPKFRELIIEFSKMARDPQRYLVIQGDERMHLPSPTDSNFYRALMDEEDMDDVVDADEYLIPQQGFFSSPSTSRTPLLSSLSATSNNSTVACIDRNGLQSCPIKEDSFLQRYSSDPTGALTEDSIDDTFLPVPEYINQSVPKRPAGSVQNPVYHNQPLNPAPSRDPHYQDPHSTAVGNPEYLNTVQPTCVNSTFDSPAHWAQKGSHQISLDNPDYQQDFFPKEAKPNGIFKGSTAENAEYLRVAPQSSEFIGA
# EGFR E746-A750 deletion = EGFR E746-A750 deletion (Homo sapiens, UniProt P00533, DEL746-750); assay: pEGFR Y1068 ELISA assay, NIH3T3/EGFR_E746-A750 deletion cells; conditions: 3T3 Del cells, 2 hrs compound treatment; read-out: ELISA7E 3T3 Del IC50;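 also: sandwich ELISA on cell lysates detecting phospho-EGFR at Tyr1068, compounds run as 11-point threefold dilution series in duplicate, IC50 from inhibition of this phosphorylation signal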
# EGFR L858R+T790M = EGFR L858R+T790M (Homo sapiens, UniProt P00533, L858R/T790M); assay: pEGFR Y1068 ELISA assay, NIH3T3/EGFR_L858R+T790M cells; conditions: 3T3 cell line, 2 hrs compound treatment; read-out: pEGFRY1068 ELISA3T3T790M—L858R IC50;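 also: sandwich ELISA of EGFR phosphorylated at Tyr1068 in lysates of stably transfected NIH/3T3 cells, 11-point threefold dilution series run in duplicate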
# Chain of EGFR L858R+T790M (P00533 25-1210 T790M/L858R): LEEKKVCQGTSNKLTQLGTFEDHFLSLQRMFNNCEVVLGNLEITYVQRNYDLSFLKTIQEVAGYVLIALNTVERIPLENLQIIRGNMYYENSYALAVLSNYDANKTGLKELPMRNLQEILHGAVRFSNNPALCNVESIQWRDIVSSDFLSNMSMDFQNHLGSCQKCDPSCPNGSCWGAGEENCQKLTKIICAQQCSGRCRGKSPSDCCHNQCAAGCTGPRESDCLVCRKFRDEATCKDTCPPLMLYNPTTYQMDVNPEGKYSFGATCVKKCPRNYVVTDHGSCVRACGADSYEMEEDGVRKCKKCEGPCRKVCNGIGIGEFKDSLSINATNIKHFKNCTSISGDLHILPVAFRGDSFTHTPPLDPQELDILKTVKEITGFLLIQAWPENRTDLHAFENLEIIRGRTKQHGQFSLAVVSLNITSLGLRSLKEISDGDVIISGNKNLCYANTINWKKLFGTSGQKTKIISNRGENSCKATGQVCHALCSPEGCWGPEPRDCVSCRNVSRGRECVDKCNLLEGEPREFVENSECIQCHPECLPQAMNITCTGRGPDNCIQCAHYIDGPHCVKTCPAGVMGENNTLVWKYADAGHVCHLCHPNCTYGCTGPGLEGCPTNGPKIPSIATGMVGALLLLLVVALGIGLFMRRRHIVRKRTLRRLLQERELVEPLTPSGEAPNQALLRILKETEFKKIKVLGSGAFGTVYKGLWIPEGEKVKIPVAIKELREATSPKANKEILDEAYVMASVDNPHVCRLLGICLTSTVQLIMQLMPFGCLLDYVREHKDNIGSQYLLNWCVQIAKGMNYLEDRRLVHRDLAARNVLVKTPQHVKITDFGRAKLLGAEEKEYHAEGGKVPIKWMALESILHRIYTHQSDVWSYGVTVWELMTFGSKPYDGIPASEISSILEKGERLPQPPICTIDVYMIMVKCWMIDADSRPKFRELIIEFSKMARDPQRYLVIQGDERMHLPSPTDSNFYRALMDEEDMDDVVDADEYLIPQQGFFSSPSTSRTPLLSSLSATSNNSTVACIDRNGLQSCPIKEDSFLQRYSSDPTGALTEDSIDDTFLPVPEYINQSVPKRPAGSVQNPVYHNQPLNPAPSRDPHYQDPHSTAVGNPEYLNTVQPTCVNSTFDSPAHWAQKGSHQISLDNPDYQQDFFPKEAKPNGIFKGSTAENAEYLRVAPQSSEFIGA
# EGFR L858R, endogenous = target: T4, EGFR L858R, endogenous (Homo sapiens, UniProt P00533, L858R); assay: pEGFR Y1068 ELISA assay, NCI-H3255 cells; conditions: value marked (H3255): NCI-H3255 cells, 2 hrs compound treatment; read-out: pEGFRY1068 ELISA3T3 L858R IC50 (nM), (H3255)
# T4 construct: NCI-H3255 (EGFR L858R, endogenous); endogenous in cells; host or cells: NCI-H3255
pIC50 (PC9RK),pIC50 (PC-9),pIC50 (NCI-H3255),pIC50 (EGFR L858R),pIC50 (NCI-H1975),IC50 [1],pIC50 (EGFR Del (PC9)),pIC50 [2],pIC50 (EGFR E746-A750 deletion),pIC50 (EGFR L858R+T790M),"IC50 (EGFR L858R, endogenous)",Structure (SMILES)
6.00 to 7.00,< 6.00,6.00 to 7.00,5.99,< 6.00,48 nM,5.18,< 5.00,–,–,–,C=CC(=O)N1C[C@H](COc2nc(Nc3cnn(CCO)c3)nc3[nH]cc(Cl)c23)[C@@H](OC)C1 [Example 101]
6.00 to 7.00,6.00 to 7.00,6.00 to 7.00,6.53,6.00 to 7.00,–,–,5.30,6.15,7.68,–,C=CC(=O)N1C[C@H](COc2nc(Nc3cnn([C@H]4CCOC4)c3)nc3[nH]cc(Cl)c23)[C@@H](OC)C1 [Example 102]
6.00 to 7.00,7.00 to 8.00,6.00 to 7.00,6.57,6.00 to 7.00,–,7.54,5.26,7.49,6.82,–,C=CC(=O)N[C@H]1C[C@@H](Oc2nc(Nc3cnn(C)c3)nc3[nH]cc(-c4cccnc4)c23)C1 [Example 109]
6.00 to 7.00,6.00 to 7.00,7.00 to 8.00,–,6.00 to 7.00,39 nM,5.92,< 5.00,–,–,667 nM,C=CC(=O)N[C@]1(C)C[C@H](Oc2nc(Nc3cnn(C)c3)nc3[nH]cc(Cl)c23)C1 [Example 114]
